Measurements reported in patent US20230286968A1, “ARYLOXAZOLO SPIRAL RING DERIVATIVES FOR THE TREATMENT AND PROPHYLAXIS OF HEPATITIS B VIRUS INFECTION” (Hoffmann-La Roche Inc., priority 2020, published 2023).

Columns and labels:
HBeAg = test: PHH natural infection assay, HBeAg (alphalisa); type: cell-based, HBV; settings: Hepatitis B virus, Hepatocyte, read-out: HBeAg IC50, HBV-infected primary human hepatocytes, supernatant, alphalisa
Method: (§1) Detailed procedures regarding primary human hepatocyte (PHH) HBV natural infection assay are described as below. One tube of frozen PHH (10 million cells) is thawed in 37° C. water bath and then transferred to 20 mL of PHH thawing medium (Sigma, InVitroGRO HT Medium, Cat. S03319) with gently mixing. The cells were then centrifuged at […] for 5 min, the supernatant was discarded and the tube was refilled with 25 mL of PHH plating medium (Sigma, InVitroGRO CP Medium, Cat. S03317). The tube was shaken very gently to re-suspend all cells, and then 50 μL of cells were transferred to each well 384-well collagen I coated plate with appropriate liquid handling equipment, e.g. Integra VIAFLO384 or Agilent Bravo. The cells were then cultured for 24 hours in a cell incubator. For HBV infection, after PHH attachment on the culture plate, the plating medium was removed and replenished with PHH culture medium containing HBV virus. The PHH culture medium was prepared with Dulbecco's Modified Eagle Medium (DMEM)/F12 (1:1 in volume ratio) containing 10% fetal bovine serum (Gibco, Cat. 10099141), 5 ng/mL human epidermal growth factor (Gibco, Cat.PHG0311L), 20 ng/mL dexamethasone (Sigma, Cat.D4902-100 mg), 250 ng/mL human recombinant insulin (Gibco, Cat.41400045) and 100 U/mL penicillin. HBV virus at 200 genome equivalent (GE) per cell with 4% PEG8000 (Sigma, Cat.P1458) containing culture medium were added to the PHH culture medium for infection. The cells were then cultured for 24 hours in cell incubator. Then the cell culture supernatant was removed. The HBV-infected PHH were cultured with sandwich culture method with PHH culture medium containing […] and 0.25 mg/mL matrix gel for 72 hours. The supernatant was then refreshed with PHH culture medium containing different concentrations of testing compounds for two times with 72-hour interval. At the end of treatment, the supernatant was collected for viral markers measurements, including HBsAg, HBeAg, HBV DNA and cytotoxicity. HBsAg and HBeAg were detected using alphalisa method using their specific antibodies. For HBV DNA detection, HBV DNA Quantitative Fluorescence Diagnostic Kit (Sansure Biotech Inc.) was used following the manufacture's protocol. Cytotoxicity was determined using Cell Counting Kit-8 (CCK8, Dojindo Molecular Technologies, Inc.).
(§2) The compounds of the present invention were tested for their capacity to inhibit HBsAg and HBeAg as described herein.

HBsAg = test: PHH natural infection assay, HBsAg (alphalisa); type: cell-based, HBV; settings: Hepatitis B virus, Hepatocyte, read-out: HBsAg IC50, HBV-infected primary human hepatocytes, supernatant, alphalisa
Method: as §1, §2

[1] = Cytotoxicity in PHH natural infection assay (Cell Counting Kit-8); type: cell-based; settings: HBV-infected primary human hepatocytes, CCK8
Method: as §1

SMILES | IC50 (HBeAg) [µM] | IC50 (HBsAg) [µM] | CC50 at 144 h [1] [µM]
CCCS(=O)(=O)N1CCC(C(=O)NC2CC3(C2)CC(c2nc4cc(Cl)ccc4o2)C3)C1 (stereo not drawn) [Example 71, N-[6-(5-chloro-1,3-benzoxazol-2-yl)spiro[3.3]heptan-2-yl]-1-propylsulfonyl-pyrrolidine-3-carboxamide] | 9.43 | 9.73 | > 10
CCCNC(=O)NC1CC2(C1)CC(c1nc3cc(Cl)ccc3o1)C2 (stereo not drawn) [Example 60, 1-[6-(5-chloro-1,3-benzoxazol-2-yl)spiro[3.3]heptan-2-yl]-3-propyl-urea] | 5.1 | 7.19 | > 100
O=C(NC1CC2(C1)CC(c1nc3cc(Cl)ccc3o1)C2)C1CCCS1(=O)=O (stereo not drawn) [Example 42, N-[6-(5-chloro-1,3-benzoxazol-2-yl)spiro[3.3]heptan-2-yl]-1,1-dioxo-thiolane-2-carboxamide] | 5.67 | 9.7 | > 100
CS(=O)(=O)c1cc(C(=O)NC2CC3(C2)CC(c2nc4cc(Cl)ccc4o2)C3)ccn1 (stereo not drawn) [Example 23, N-[6-(5-chloro-1,3-benzoxazol-2-yl)spiro[3.3]heptan-2-yl]-2-methylsulfonyl-pyridine-4-carboxamide] | 0.49 | 0.57 | 94.1
O=C(NC1CC2(C1)CC(c1nc3cc(Cl)ccc3o1)C2)c1ccnc(N2CCOCC2)c1 (stereo not drawn) [Example 9, N-[6-(5-chloro-1,3-benzoxazol-2-yl)spiro[3.3]heptan-2-yl]-2-morpholino-pyridine-4-carboxamide] | 4.37 | 3.83 | > 10
O=C(NCC1CCOC1)NC1CC2(C1)CC(c1nc3cc(Cl)ccc3o1)C2 (stereo not drawn) [Example 63, 1-[6-(5-chloro-1,3-benzoxazol-2-yl)spiro[3.3]heptan-2-yl]-3-(tetrahydrofuran-3-ylmethyl)urea] | 5.3 | 8.02 | > 100
CCS(=O)(=O)c1cc(C(=O)NC2CC3(C2)CC(c2nc4cc(Cl)ccc4o2)C3)ccn1 (stereo not drawn) [Example 26, N-[6-(5-chloro-1,3-benzoxazol-2-yl)spiro[3.3]heptan-2-yl]-2-ethylsulfonyl-pyridine-4-carboxamide] | 0.19 | 0.28 | 74.1
O=C(NC1CC2(C1)CC(c1nc3cc(Cl)ccc3o1)C2)N1CCCC1 (stereo not drawn) [Example 66, N-[6-(5-chloro-1,3-benzoxazol-2-yl)spiro[3.3]heptan-2-yl]pyrrolidine-1-carboxamide] | 1.97 | 2.5 | 92.1
COc1cc(C(=O)NC2CC3(C2)CC(c2nc4cc(Cl)ccc4o2)C3)ccn1 (stereo not drawn) [Example 17, N-[6-(5-chloro-1,3-benzoxazol-2-yl)spiro[3.3]heptan-2-yl]-2-methoxy-pyridine-4-carboxamide] | 4.48 | 5.45 | > 10
Cc1c(Cl)cccc1N1CC(C(=O)NC2CC3(C2)CC(c2nc4cc(Cl)ccc4o2)C3)CC1=O (stereo not drawn) [Example 33, N-[6-(5-chloro-1,3-benzoxazol-2-yl)spiro[3.3]heptan-2-yl]-1-(3-chloro-2-methyl-phenyl)-5-oxo-pyrrolidine-3-carboxamide] | 3.07 | 3.24 | 42.8
O=C(NC1CC2(C1)CC(c1nc3cc(Cl)ccc3o1)C2)N1CCS(=O)(=O)CC1 (stereo not drawn) [Example 68, N-[6-(5-chloro-1,3-benzoxazol-2-yl)spiro[3.3]heptan-2-yl]-1,1-dioxo-1,4-thiazinane-4-carboxamide] | 4.12 | 6.65 | > 100
CCS(=O)(=O)c1cc(C(=O)N(C)C2CC3(CC(c4nc5cc(Cl)ccc5o4)C3)C2)ccn1 (stereo not drawn) [Example 93, N-[6-(5-chloro-1,3-benzoxazol-2-yl)spiro[3.3]heptan-2-yl]-2-ethylsulfonyl-N-methyl-pyridine-4-carboxamide] | 2.21 | 3.08 | > 10
CS(=O)(=O)c1cncc(C(=O)NC2CC3(C2)CC(c2nc4cc(Cl)ccc4o2)C3)c1 (stereo not drawn) [Example 24, N-[6-(5-chloro-1,3-benzoxazol-2-yl)spiro[3.3]heptan-2-yl]-5-methylsulfonyl-pyridine-3-carboxamide] | 3.73 | 5.99 | > 100
CN1C(C(=O)NC2CC3(C2)CC(c2nc4cc(Cl)ccc4o2)C3)CCS1(=O)=O (stereo not drawn) [Example 46, N-[6-(5-chloro-1,3-benzoxazol-2-yl)spiro[3.3]heptan-2-yl]-2-methyl-1,1-dioxo-1,2-thiazolidine-3-carboxamide] | 3.41 | 3.9 | > 10
O=C(CCCS(=O)(=O)NC(=O)C1CCC1)NC1CC2(C1)CC(c1nc3cc(Cl)ccc3o1)C2 (stereo not drawn) [Example 81, N-[4-[[6-(5-chloro-1,3-benzoxazol-2-yl)spiro[3.3]heptan-2-yl]amino]-4-oxo-butyl]sulfonylcyclobutanecarboxamide] | 6.06 | 4.6 | > 10
NS(=O)(=O)CCC(=O)NC1CC2(C1)CC(c1nc3cc(Cl)ccc3o1)C2 (stereo not drawn) [Example 38, N-[6-(5-chloro-1,3-benzoxazol-2-yl)spiro[3.3]heptan-2-yl]-3-sulfamoyl-propanamide] | 5.49 | 9.48 | > 10
O=C(NC1CC2(C1)CC(c1nc3cc(Cl)ccc3o1)C2)C1CCS(=O)(=O)CC1 (stereo not drawn) [Example 53, N-[6-(5-chloro-1,3-benzoxazol-2-yl)spiro[3.3]heptan-2-yl]-1,1-dioxo-thiane-4-carboxamide] | 5.23 | 6.7 | > 100
O=C(NC1CC2(C1)CC(c1nc3cc(Cl)ccc3o1)C2)C1CN(Cc2ccccc2)S(=O)(=O)C1 (stereo not drawn) [Example 44, 2-benzyl-N-[6-(5-chloro-1,3-benzoxazol-2-yl)spiro[3.3]heptan-2-yl]-1,1-dioxo-1,2-thiazolidine-4-carboxamide] | 4.6 | 4.44 | > 10
O=C(NC1CC2(C1)CC(c1nc3cc(Cl)ccc3o1)C2)C1CCN(S(=O)(=O)C2CC2)C1 (stereo not drawn) [Example 72, N-[6-(5-chloro-1,3-benzoxazol-2-yl)spiro[3.3]heptan-2-yl]-1-cyclopropylsulfonyl-pyrrolidine-3-carboxamide] | 4.43 | 9.56 | > 10
O=C(NC1CC2(C1)CC(c1nc3cc(C(F)(F)F)ccc3o1)C2)C1CCS(=O)(=O)CC1 (stereo not drawn) [Example 57, 1,1-dioxo-N-[6-[5-(trifluoromethyl)-1,3-benzoxazol-2-yl]spiro[3.3]heptan-2-yl]thiane-4-carboxamide] | 3.59 | 4.47 | > 100
CS(=O)(=O)N1CCC(C(=O)NC2CC3(C2)CC(c2nc4cc(Cl)ccc4o2)C3)C1 (stereo not drawn) [Example 69, N-[6-(5-chloro-1,3-benzoxazol-2-yl)spiro[3.3]heptan-2-yl]-1-methylsulfonyl-pyrrolidine-3-carboxamide] | 1.31 | 1.79 | > 100
CN(C)c1cc(C(=O)NC2CC3(C2)CC(c2nc4cc(Cl)ccc4o2)C3)ccn1 (stereo not drawn) [Example 11, N-[6-(5-chloro-1,3-benzoxazol-2-yl)spiro[3.3]heptan-2-yl]-2-(dimethylamino)pyridine-4-carboxamide] | 2.67 | 2.85 | > 100
CC(C)CC(=O)NC1CC2(C1)CC(c1nc3cc(Cl)ccc3o1)C2 (stereo not drawn) [Example 28, N-[6-(5-chloro-1,3-benzoxazol-2-yl)spiro[3.3]heptan-2-yl]-3-methyl-butanamide] | 2.28 | 2.54 | > 100
NS(=O)(=O)CCCC(=O)NC1CC2(C1)CC(c1nc3cc(Cl)ccc3o1)C2 (stereo not drawn) [Example 39, N-[6-(5-chloro-1,3-benzoxazol-2-yl)spiro[3.3]heptan-2-yl]-4-sulfamoyl-butanamide] | 4.8 | 5.98 | > 10
N=C(NO)c1cc(C(=O)NC2CC3(C2)CC(c2nc4cc(Cl)ccc4o2)C3)ccn1 (stereo not drawn) [Example 95, N-[6-(5-chloro-1,3-benzoxazol-2-yl)spiro[3.3]heptan-2-yl]-2-(N-hydroxycarbamimidoyl)pyridine-4-carboxamide] | 6.25 | 8.25 | > 10
